Measured values from patent US20230210858A1, “PODOSOMES AS A THERAPEUTIC TARGET FOR INTRACRANIAL ANEURYSM” (THE BOARD OF REGENTS OF THE UNIVERSITY OF TEXAS SYSTEM, priority 2022, published 2023).

Experiments:
[1] = system: thsd1-MO injected zebrafish embryos; test: Hemorrhagic incidence in thsd1-MO injected zebrafish embryos (Table 5 constructs) treated with SRC inhibitors (FIG. 13); format: in vivo
Description: (§1) Anti-sense morpholinos against thsd1, atg5 or talin was injected into one-cell stage zebrafish singly or in combination to silence the gene accordingly. At day 2 to day 3, embryos will be checked under regular optical microscope. Embryos with intracranial hemorrhages will be counted and imaged by Olympus microscope.
Subsequently, the nucleic acid constructs encoding these sequences were introduced into zebrafish thsd1 by PCR mutagenesis. Specifically, the thsd1 variant or the WT sequence was subcloned into pCS2+ zebrafish vector for expression. These constructs were used as tools to study cerebrovascular integrity mediated by thsd1 WT and rare variants in the zebrafish animal model selected to model a human condition.
All embryos were injected by thsd1-MO and the hemorrhagic incidence was counted under microscope. For each injection, around 80-120 embryos were injected. *p<0.05, **p<0.01.

[2] = system: Thsd1-deficient zebrafish; test: Intracranial hemorrhage in thsd1 knockdown zebrafish embryos treated with SRC inhibitor (FIG. 8); format: in vivo; conditions: vs DMSO control, n>120 embryos, p<0.05, FIG. 8b
Description: as §1
Intracranial aneurysm and hemorrhage are tightly associated with compromised cerebrovascular integrity. Recently, zebrafish have gained additional popularity as a vertebrate model organism for studying the cerebrovasculature. Since zebrafish embryos are transparent, intracranial hemorrhage can be directly observed using a standard microscope. Furthermore, zebrafish fecundity and rapid development permits rapid phenotypic evaluation as intracranial hemorrhage in zebrafish fry are detectable as early as 2-3 days post fertilization. Importantly, gain-of-function and loss-of-function approaches are well established in zebrafish that include morpholino and mRNA injections and more recently, through applications of CRISPR/Cas9 technology.
FIGS. 8a-8b are experimental results depicting that loss-of-function of Thsd1 induces SRC-dependent intracranial hemorrhage in zebrafish, and treatment with a PP2 SRC inhibitor prevents intracranial hemorrhage in Thsd1-deficient zebrafish. […] FIG. 8b is a chart quantifying the number of embryos with intracranial hemorrhage (%).

| Compound | hemorrhagic incidence (intracranial hemorrhage) ([1]; 1 uM in embryo water at 1 dpf for 24 hours) | number of embryos with intracranial hemorrhage (%) [2] | hemorrhagic incidence (intracranial hemorrhage) ([1]; 10 uM in embryo water at 1 dpf for 24 hours) |
| --- | --- | --- | --- |
| CN(C)S(=O)(=O)c1ccc2c(c1)/C(=C/c1cc3c([nH]1)CCCC3)C(=O)N2 [SU5565] | rescued intracranial hemorrhage | – | – |
| CC(C)(C)n1nc(-c2ccc(Cl)cc2)c2c(N)ncnc21 [PP2] | – | ameliorated Thsd1-dependent hemorrhage incidents | rescued intracranial hemorrhage |
